According to ChEMBL document CHEMBL5303709, “ECBD screening data for assay EOS300041” (2022):
Peptide text beside a SMILES is read from it. * marks the point of attachment. Cbz = O=C(OCc1ccccc1)*

biological target: Replicase polyprotein 1ab (Severe acute respiratory syndrome coronavirus 2) (UniProt P0DTD1); assay: Inhibition of SARS-CoV-2 3CL-Pro proteolytic cleavage of a dual-labeled substrate by FRET.; type: functional; parameters: assay stage

| Structure (SMILES) | IC50 relative [µM] |
| --- | --- |
| O=C(Nc1ccccc1)Nc1ccc(-c2ccc(C(=O)[C@@H]3CCC[C@H]3C(=O)O)cc2)cc1 | > 20 |
| O=C(O)[C@@H](S)[C@@H](S)C(=O)O | 6.74 |
| CN(C)S(=O)(=O)c1cccc(-n2sc3ccccc3c2=O)c1 | < 0.02 |
| O=C(CCl)c1ccccc1 | 0.19 |
| O=C(c1ccc(Cl)cc1)c1cc([N+](=O)[O-])ccc1N1CCOCC1 | > 20 |
| O=c1c2ccccc2sn1-c1ccccc1 | < 0.02 |
| CCN(CC)S(=O)(=O)c1cccc(-n2sc3ccccc3c2=O)c1 | < 0.02 |
| COc1ccnc(C[S+]([O-])c2nc3cc(OC(F)F)ccc3[nH]2)c1OC (configuration not stated) | > 20 |
| Cc1cc(-c2ccc(/N=N/c3ccc4c(S(=O)(=O)O)cc(S(=O)(=O)O)c(N)c4c3O)c(C)c2)ccc1/N=N/c1ccc2c(S(=O)(=O)O)cc(S(=O)(=O)O)c(N)c2c1O | > 20 |
| Cc1ccc(S(=O)(=O)N[C@@H](Cc2ccccc2)C(=O)CCl)cc1 | 1.37 |
| Sc1nnc(Nc2ccccc2)s1 | 0.39 |
| COc1cc(N(C)C)cc(CN(C)CCc2ccc([N+](=O)[O-])cc2)c1O | 6.09 |
| Nc1ccc(O)c2ncccc12 | 2.05 |
| O=C(O)C1=CC(=C(c2ccc(O)c(C(=O)O)c2)c2ccc(O)c(C(=O)O)c2)C=CC1=O | > 20 |
| NC(Cc1cc(O)c(O)cc1O)C(=O)O (racemic) | > 20 |
| Oc1cc2c(cc1C(c1ccc(C(F)(F)F)cc1)N1CCOCC1)OCO2 (configuration not stated) | 0.545 |
| COc1ccc2[nH]c(S)nc2c1 | > 20 |
| O=C(/C=C/c1ccc2ccccc2n1)c1ccncc1 | > 20 |
| CCOC(=O)c1c(N)sc(-c2ccccc2)c1C | 3.28 |
| Cc1cc(-c2ccc(/C=C3/S/C(=N\c4ccc(Cl)c(C(=O)O)c4)NC3=O)o2)c([N+](=O)[O-])cc1C | > 20 |
| COC(=O)CC[C@H](NC(=O)[C@H](CC(=O)OC)NC(=O)OCc1ccccc1)C(=O)N[C@H](C(=O)N[C@@H](CC(=O)OC)C(=O)CF)C(C)C | < 0.02 |
| Cc1ccc(C)c(-n2sc3cc(F)ccc3c2=O)c1 | < 0.02 |
| [O-][n+]1ccccc1S | 0.0487 |
| COc1ccc2[nH]c([S+]([O-])Cc3ncc(C)c(OC)c3C)nc2c1 (configuration not stated) | > 20 |
| Cn1sc(=O)n(Cc2ccccc2)c1=O | < 0.02 |
| COc1ncc(-c2ccc3nccc(-c4ccnnc4)c3c2)cc1NS(=O)(=O)c1ccc(F)cc1F | > 20 |

| Structure (SMILES) | IC50 relative [µM] |
| --- | --- |
| CN1CCN(C(=O)c2ccc(-c3ccc4c(C=O)c(O)ccc4c3)s2)CC1 | 1.94 |
| CC(C)(C)OC(=O)NCCc1nnc(S(=O)(=O)Cc2ccc(Cl)cc2Cl)o1 | 4.22 |
| CCN(CC)C(=S)S | > 20 |
| O=C(O)c1c(Cl)c(Cl)c(Cl)c(Cl)c1-c1c2cc(I)c(=O)c(I)c-2oc2c(I)c(O)c(I)cc12 | > 20 |
| Nc1nc(S)c2ncn(C3OC(CO)C(O)C3O)c2n1 (configuration not stated) | 1.07 |
| CCCCn1c(NC(=O)c2cccs2)c(C#N)c2nc3ccccc3nc21 | > 20 |
| COc1ccc2[nH]c3c(S)ncnc3c2c1 | > 20 |
| Cc1c(-c2ccc(N3CCc4cccc(C(=O)Nc5nc6ccccc6s5)c4C3)nc2C(=O)O)cnn1CC12CC3CC(CC(C3)C1)C2 | > 20 |
| Cc1ccc(-n2sc(=O)n(Cc3ccc(F)cc3)c2=O)cc1 | < 0.02 |
| O=c1c(O)cccc2cc(O)c(O)c(O)c12 | 6.98 |
| O=C1C(Cl)=C(Cl)C(=O)C(Cl)=C1Cl | < 0.02 |
| CC1=CC(=O)c2ccccc2C1=O | > 20 |
| CCN1CCN(C(c2ccc(C(F)(F)F)cc2)c2ccc3cccnc3c2O)CC1 (configuration not stated) | 0.152 |
| CC(Cc1ccc(O)c(O)c1)C(C)Cc1ccc(O)c(O)c1 (configuration not stated) | > 20 |
| O=C(c1cccs1)c1no[n+]([O-])c1C(=O)c1cccs1 | 11 |
| Sc1nnnn1-c1ccccc1 | 2.36 |
| O=c1cc(-c2ccccc2)oc2cc(O)c(O)c(O)c12 | > 20 |
| S=C=NCc1ccccc1 | > 20 |
| O=C(NC(=S)N1CCCc2ccccc21)c1ccccc1 | > 20 |
| CCOc1cc(C(Nc2cc(C)ccn2)c2ccc3cccnc3c2O)ccc1OC (configuration not stated) | 0.269 |
| C[C@H]1COC2=C1C(=O)C(=O)c1c2ccc2c1CCCC2(C)C | > 20 |
| CC(C)C[C@@H](C=O)NC(=O)[C@H](CC(C)C)NC(=O)[C@H](CC(C)C)NC(=O)OCc1ccccc1 (Cbz-Leu-Leu-Leu-aldehyde) | > 20 |
| S=C=Nc1cccc(NC(=S)NCCCCNC(=S)Nc2cccc(N=C=S)c2)c1 | > 20 |
| Cc1ccc(-n2sc3ccccc3c2=O)cc1 | < 0.02 |
| Sc1nnc(-c2ccccc2Cl)o1 | > 20 |
| O=[N+]([O-])c1ccc(Sc2cccc[n+]2[O-])c2nonc12 | < 0.02 |
